In patent publication US20150266850A1 (E.I.DU PONT DE NEMOURS AND COMPANY, priority 2012, published 2015):
Marks after values point to notes of the source that are not given here.

Legend:
[1] = Photostability Example: aqueous photolysis under xenon arc lamp simulating natural sunlight for 24 hours, percent remaining relative to dark controls; type: physicochemical; conditions: 0.670 μg/mL in 80/20 10 mM pH 7 phosphate buffer/acetonitrile, xenon arc lamp 24 hours
Description: Aqueous photolysis data is a simple proxy for photostability under field conditions. The following aqueous photolysis data supports the enhanced photostability of the tolyl fungicides of the present invention.
Test compound (0.670 μg/mL) dissolved in 80/20 10 mM pH 7 phosphate buffer/acetonitrile is added to 2-mL borosilicate glass HPLC vials. The addition of 20% acetonitrile is intended to ensure solubility of compounds with low aqueous solubility. Samples are exposed to light in an Atlas Ci65 Burner photolysis chamber fitted with a xenon arc lamp (6500 W) to simulate natural sunlight for 24 hours and compared with samples wrapped in aluminum foil to protect them from light under the same conditions. The 24-hour irradiation is equivalent to ˜2.6 days of average Delaware summer sunlight exposure. Samples are analyzed by HPLC and results are reported as percent remaining based on peak area relative to the dark controls.

Septoria nodorum = assay: Test D: wheat glume blotch, preventive spray on wheat seedlings, visual disease rating; type: in vivo; conditions: 100 = 100% disease control; for pest or weed control at 200 ppm: Parastagonospora nodorum, 216 h
Outline: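 Disease control (0 = none, 100 = full, relative to controls) was scored visually on wheat seedlings 7 days after a 48 h saturated-humidity incubation at 20° C following Septoria nodorum inoculation. Inoculation came one day after a run-off spray at 200 ppm (some 40 or 50 ppm) in acetone/water plus surfactant.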

[2] = test system: Puccinia recondita f sp. tritici; assay: Test B: wheat leaf rust, preventive spray on wheat seedlings, visual disease rating; type: in vivo; conditions: 100 = 100% disease control; for pest or weed control at 200 ppm: 192 h
Outline: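 Preventive spray to run-off on seedlings, one day before spore inoculation; 24 h in saturated atmosphere at 20° C, then 7 days in a 20° C growth chamber before visual rating (100 = full control, 0 = none, relative to controls). Standard rate 200 ppm, equal to 800 g/ha, some at 40 or 50 ppm; compounds in acetone/water with 250 ppm surfactant.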

Septoria tritici = assay: Test C: wheat leaf blotch, preventive spray on wheat seedlings, visual disease rating; type: in vivo; conditions: 100 = 100% disease control; for pest or weed control at 200 ppm: Zymoseptoria tritici, 504 h
Outline: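 Preventive run-off spray on seedlings at 200 ppm (equal to 800 g/ha), some at 40 or 50 ppm, in acetone/water 50/50 plus 250 ppm Trem® 014. Spore inoculation one day later; 24° C. saturated for 48 h, 20° C. chamber 19 days. Disease scored visually as % control relative to controls.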

Botrytis cinerea = assay: Test E: tomato botrytis, preventive spray on tomato seedlings, visual disease rating; type: in vivo; conditions: 100 = 100% disease control; for pest or weed control at 200 ppm: Botrytis cinerea, 120 h
Outline: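 Preventive test: seedlings inoculated with Botrytis cinerea spore suspension one day after run-off spraying (200 ppm ≈ 800 g/ha; some 40 or 50 ppm) in acetone/water with 250 ppm surfactant. Incubation 48 h at 20°C saturated humidity, then 3 days at 27°C; disease control rated visually (0–100%) relative to controls.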

[3] = test system: Erysiphe graminis f. sp. tritici; assay: Test A: wheat powdery mildew, preventive spray on wheat seedlings, visual disease rating; type: in vivo; conditions: 100 = 100% disease control; for pest or weed control at 200 ppm: Blumeria graminis, 192 h
Outline: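 Preventive test: seedlings inoculated with Erysiphe spores one day after run-off spraying at 200 ppm (or 40/50 ppm) in acetone/water plus surfactant. Kept 8 days at 20° C; visual rating as % disease control versus untreated (100 = full control).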

COC(=O)NCc1cc(-n2ncc(-c3ccc(OC)cc3OC)n2)ccc1Cl [17P]
% Cmpd Remaining [1]: 0%

COC(=O)NCc1cc(-n2ccc(-c3ccc(OC)cc3OC)n2)ccc1C [Compound 23, methyl N-[[5-[3-(2,4-dimethoxyphenyl)-1H-pyrazol-1-yl]-2-methylphenyl]methyl]carbamate]
pest or weed control at 200 ppm (Septoria nodorum; 200 ppm): 100%
pest or weed control at 200 ppm ([2]; 200 ppm): 100%
pest or weed control at 200 ppm (Septoria tritici; 200 ppm): 100%
pest or weed control at 200 ppm (Botrytis cinerea; 200 ppm): 66%
% Cmpd Remaining [1]: 54%
pest or weed control at 200 ppm ([3]; 200 ppm): 100%

COC(=O)NCc1cc(-n2ccc(-c3ccc(OC)cc3C)n2)ccc1F [10PP]
% Cmpd Remaining [1]: 64%

COC(=O)NCc1cc(-n2ccc(-c3ccc(OC)cc3OC)n2)ccc1F [23PP]
% Cmpd Remaining [1]: 5%

COC(=O)NCc1cc(-c2ccn(-c3ccc(OC)cc3OC)n2)ccc1Cl [24P]
% Cmpd Remaining [1]: 0%

COC(=O)NCc1cc(-n2ccc(-c3ccc(OC)cc3OC)n2)ccc1Cl [23P]
% Cmpd Remaining [1]: 0%

COC(=O)NCc1cc(-c2ccn(-c3ccc(OC)cc3OC)n2)ccc1C [compound 24]
Test B disease control rating ([2]; 200 ppm): 100%
Test C disease control rating (Septoria tritici; 200 ppm): 100%
Test E disease control rating (Botrytis cinerea; 200 ppm): 55%
% Cmpd Remaining [1]: 78%
Test A disease control rating ([3]; 200 ppm): 100%

COC(=O)NCc1cc(-n2ccc(-c3ccc(OC)cc3C)n2)ccc1Cl [10P]
% Cmpd Remaining [1]: 0%

COC(=O)NCc1cc(-c2ncn(-c3ccc(C)cc3C)n2)ccc1C [Compound 118, methyl N-[[5-[1-(2,4-dimethylphenyl)-1H-1,2,4-triazol-3-yl]-2-methylphenyl]methyl]carbamate]
pest or weed control at 200 ppm ([2]; 200 ppm): 100%
melting point: 148 to 151 °C
pest or weed control at 200 ppm ([3]; 200 ppm): 99%

COC(=O)NCc1cc(-c2ncn(-c3ccc(Cl)cc3Cl)n2)ccc1C [Compound 119]
pest or weed control at 200 ppm ([2]; 200 ppm): 100%
melting point: 152 to 155 °C
pest or weed control at 200 ppm ([3]; 200 ppm): 99%

COC(=O)NCc1cc(-c2ccn(-c3ccc(OC)cc3C)n2)ccc1Cl [18P]
% Cmpd Remaining [1]: 0%

COC(=O)NCc1cc(-c2ccn(-c3ccc(Br)cc3[N+](=O)[O-])n2)ccc1C [Cmpd 48]
Test D disease control rating (Septoria nodorum; 40 ppm (*)): 100* %
Test B disease control rating ([2]; 40 ppm (*)): 100* %
Test C disease control rating (Septoria tritici; 40 ppm (*)): 100* %
Test E disease control rating (Botrytis cinerea; 40 ppm (*)): 37* %
Test A disease control rating ([3]; 40 ppm (*)): 0* %

COC(=O)NCc1cc(-n2ncc(-c3ccc(OC)cc3C)n2)ccc1C [Compound 8, methyl N-[[5-[4-(4-methoxy-2-methylphenyl)-2H-1,2,3-triazol-2-yl]-2-methylphenyl]methyl]carbamate]
pest or weed control at 200 ppm (Septoria nodorum; 200 ppm): 100%
pest or weed control at 200 ppm ([2]; 200 ppm): 100%
pest or weed control at 200 ppm (Septoria tritici; 200 ppm): 100%
pest or weed control at 200 ppm (Botrytis cinerea; 200 ppm): 90%
pest or weed control at 200 ppm ([3]; 200 ppm): 100%

COC(=O)NCc1cc(-n2ccc(-c3ccc(OC)cc3Cl)n2)ccc1C [Cmpd 13]
Test D disease control rating (Septoria nodorum; 200 ppm): 100%
Test B disease control rating ([2]; 200 ppm): 100%
Test C disease control rating (Septoria tritici; 200 ppm): 100%
Test E disease control rating (Botrytis cinerea; 200 ppm): 99%
Test A disease control rating ([3]; 200 ppm): 100%

COC(=O)NCc1cc(-c2ccn(-c3ccc(F)cc3OC)n2)ccc1C [Cmpd 27]
Test D disease control rating (Septoria nodorum; 200 ppm): 100%
Test B disease control rating ([2]; 200 ppm): 100%
Test C disease control rating (Septoria tritici; 200 ppm): 100%
Test E disease control rating (Botrytis cinerea; 200 ppm): 54%
Test A disease control rating ([3]; 200 ppm): 100%

COC(=O)NCc1cc(-c2ccn(-c3ccc(OC)cc3C#N)n2)ccc1C [Cmpd 21]
Test D disease control rating (Septoria nodorum; 200 ppm): 100%
Test B disease control rating ([2]; 200 ppm): 100%
Test C disease control rating (Septoria tritici; 200 ppm): 98%
Test E disease control rating (Botrytis cinerea; 200 ppm): 66%
Test A disease control rating ([3]; 200 ppm): 96%

COC(=O)NCc1cc(-c2ccn(-c3ccc(F)cc3F)n2)ccc1C [Cmpd 64]
Test D disease control rating (Septoria nodorum; 40 ppm (*)): 100* %
Test B disease control rating ([2]; 40 ppm (*)): 100* %
Test C disease control rating (Septoria tritici; 40 ppm (*)): 97* %
Test E disease control rating (Botrytis cinerea; 40 ppm (*)): 74* %
Test A disease control rating ([3]; 40 ppm (*)): 100* %

COC(=O)NCc1cc(-n2ccc(-c3ccc(Cl)cc3F)n2)ccc1C [Cmpd 39]
Test D disease control rating (Septoria nodorum; 40 ppm (*)): 100* %
Test B disease control rating ([2]; 40 ppm (*)): 100* %
Test C disease control rating (Septoria tritici; 40 ppm (*)): 100* %
Test E disease control rating (Botrytis cinerea; 40 ppm (*)): 53* %
Test A disease control rating ([3]; 40 ppm (*)): 99* %

CCOc1cc(Cl)ccc1-c1ccn(-c2ccc(C)c(CNC(=O)OC)c2)n1 [Cmpd 77]
Test D disease control rating (Septoria nodorum; 40 ppm (*)): 100* %
Test B disease control rating ([2]; 40 ppm (*)): 100* %
Test C disease control rating (Septoria tritici; 40 ppm (*)): 99* %
Test E disease control rating (Botrytis cinerea; 40 ppm (*)): 0* %
Test A disease control rating ([3]; 40 ppm (*)): 100* %

COC(=O)NCc1cc(-c2ccn(-c3ccc(Cl)cc3O)n2)ccc1C [Cmpd 33]
Test D disease control rating (Septoria nodorum; 200 ppm): 100%
Test B disease control rating ([2]; 200 ppm): 94%
Test C disease control rating (Septoria tritici; 200 ppm): 2%
Test E disease control rating (Botrytis cinerea; 200 ppm): 0%
Test A disease control rating ([3]; 200 ppm): 0%

COC(=O)NCc1cc(-n2ccc(-c3ccc(Br)cc3Cl)n2)ccc1C [Cmpd 55]
Test D disease control rating (Septoria nodorum; 40 ppm (*)): 100* %
Test B disease control rating ([2]; 40 ppm (*)): 100* %
Test C disease control rating (Septoria tritici; 40 ppm (*)): 91* %
Test E disease control rating (Botrytis cinerea; 40 ppm (*)): 38* %
Test A disease control rating ([3]; 40 ppm (*)): 100* %

COC(=O)NCc1cc(-n2ncc(-c3ccc(F)cc3F)n2)ccc1C [Cmpd 67]
Test D disease control rating (Septoria nodorum; 40 ppm (*)): 100* %
Test B disease control rating ([2]; 40 ppm (*)): 100* %
Test C disease control rating (Septoria tritici; 40 ppm (*)): 98* %
Test E disease control rating (Botrytis cinerea; 40 ppm (*)): 33* %
Test A disease control rating ([3]; 40 ppm (*)): 100* %

COC(=O)NCc1cc(-n2ccc(-c3ccc(Br)cc3F)n2)ccc1C [Cmpd 56]
Test D disease control rating (Septoria nodorum; 40 ppm (*)): 100* %
Test B disease control rating ([2]; 40 ppm (*)): 100* %
Test C disease control rating (Septoria tritici; 40 ppm (*)): 98* %
Test E disease control rating (Botrytis cinerea; 40 ppm (*)): 56* %
Test A disease control rating ([3]; 40 ppm (*)): 100* %

COC(=O)NCc1cc(-c2ccn(-c3ccc(OC)cc3Cl)n2)ccc1C [Compound 20, methyl N-[[5-[1-(2-chloro-4-methoxyphenyl)-1H-pyrazol-3-yl]-2-methylphenyl]-methyl]carbamate]
pest or weed control at 200 ppm (Septoria nodorum; 200 ppm): 100%
pest or weed control at 200 ppm ([2]; 200 ppm): 100%
pest or weed control at 200 ppm (Septoria tritici; 200 ppm): 100%
pest or weed control at 200 ppm (Botrytis cinerea; 200 ppm): 0%
pest or weed control at 200 ppm ([3]; 200 ppm): 100%

COC(=O)NCc1cc(-c2ccn(-c3ccc(Br)cc3Cl)n2)ccc1C [Cmpd 61]
Test D disease control rating (Septoria nodorum; 40 ppm (*)): 100* %
Test B disease control rating ([2]; 40 ppm (*)): 100* %
Test C disease control rating (Septoria tritici; 40 ppm (*)): 94* %
Test E disease control rating (Botrytis cinerea; 40 ppm (*)): 91* %
Test A disease control rating ([3]; 40 ppm (*)): 100* %

COC(=O)NCc1cc(-c2ccn(-c3ccc(Cl)cc3F)n2)ccc1C [Cmpd 65]
Test D disease control rating (Septoria nodorum; 40 ppm (*)): 100* %
Test B disease control rating ([2]; 40 ppm (*)): 100* %
Test C disease control rating (Septoria tritici; 40 ppm (*)): 98* %
Test E disease control rating (Botrytis cinerea; 40 ppm (*)): 94* %
Test A disease control rating ([3]; 40 ppm (*)): 100* %
